Consider one compound from paper PMC10256842, “Empowering drug off-target discovery with metabolic and structural analysis” (Nature Communications, 2023).

The target of this test is T1, HPPK (6-Hydroxymethyl-7,8-dihydropterin pyrophosphokinase) (Escherichia coli, UniProt P26281).
T1 construct: gene folK; recombinant HPPK from pET28A, Ni-NTA purified
T1 sequence (P26281 2-159): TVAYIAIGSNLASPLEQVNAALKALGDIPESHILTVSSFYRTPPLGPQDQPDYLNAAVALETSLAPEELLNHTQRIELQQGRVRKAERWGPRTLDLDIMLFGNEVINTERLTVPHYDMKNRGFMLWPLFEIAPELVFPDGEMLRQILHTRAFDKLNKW
Briefly: KinaseGlo luminescence ATP-depletion assay; substrate starts the reaction and relieves CD15-3 inhibition. The test is classed as biochemical.

The structures appear in SMILES notation.

As to `Nc1nc2c(c(=O)[nH]1)N=C(CO)CN2` [6-Hydroxymethyl-7,8-dihydropterin], the “KinaseGlo luminescence ATP-depletion assay; substrate starts the reaction and re” value is recorded as “HPPK reaction was initiated with the introduction of the substrate, 6-Hydroxymethyl-7,8-dihydropterin in the assay buffer”.
